Data as given in US10653648B2, “Histone acetyltransferase activators and compositions and uses thereof” (THE TRUSTEES OF COLUMBIA UNIVERSITY IN THE CITY OF NEW YORK, priority 2016, dated 2020).

Columns and labels:
[1] = cited from earlier work
[2] = tested on: Pfeiffer (EP300 wt/CREBBP mut); test: Synergy with romidepsin, Excess Over Bliss; format: cell-based; conditions: in combination with romidepsin, 72 hrs
Method: (§1) FIGS. 22A-E show the synergy effect of JF1, a HAT activator compound, with romidepsin (a pan-class HDAC inhibitor) in B-cell lymphoma cell lines. Synergy between JF1 and romidepsin was evaluated in Pfeiffer (EP300 wt/CREBBP mut) and SUDHL-10 cells (EP300 mut/CREBBP Δ). Excess Over Bliss was calculated. Drug synergy will be confirmed by Excess over bliss (EOB). Bliss is calculated by the following formula: X=(A+B)−(A*B); where X designates the combined response for the two single compounds with effects (inhibition) A and B. The difference between Bliss and observed growth inhibition (Y) induced by combinations of drugs A and B at the same dose is the termed EOB (EOB=Y−X) 18,19. An EOB>10 connotes synergy. […] Synergy effect of JF1 and romidepsin was also assessed in a panel of B-cell lymphoma cell lines (N=5) (FIGS. 22C-22E). Cells were treated by different concentrations of JF1 and romidepsin for 48 hrs (FIG. 22C) and 72 hrs (FIG. 22D) and an Excess Over Bliss was calculated for both time points for all five cell lines. SUDHL-6 and Pfeiffer (Bold) were treated 2, 2.5, […] JF1, whereas the rest of cell lines were treated with 2, 3, 4 μM JF1. Synergy is defined by an Excess Over Bliss of 10. […]
(§2) Cells were exposed to increasing concentrations of YF2 and romidepsin in various combinations for 72 hrs and Excess Over Bliss (EOB) was calculated.

[3] = tested on: seven B-cell lymphoma cell lines; test: Synergy with romidepsin, Excess Over Bliss, cell line panel; format: cell-based; conditions: in combination with romidepsin, 72 hrs
Method: as §1, §2

[4] = tested on: SUDHL-6 (EP300 mut/CREBBP mut); test: Histone acetylation quantified by mass spectrometry; format: cell-based; conditions: combination with romidepsin (1.5 nM); YF2 6 uM, JF1 3 uM; 48 hours
Method: (§3) FIGS. 25A-B compare the synergy effects that HAT-activators JF1 and YF2 in combination with romidepsin have on histone acetylation in B-cell lymphoma cell lines, as quantified by mass spectrometry. In these experiments cells were seeded at 5,000 cells/mL and exposed to YF2 (6 uM), JF1 (3 uM) and romidepsin (1.5 nM) alone and in combinations for 48 hours. Following treatment, SUDHL-6 (EP300 mut/CREBBP mut, FIG. 25A) and SUDHL-10 cells (EP300 mut/CREBBP mut, FIG. 25B) were harvested for histone extraction.
For each, a synergy effect, calculated as a fold change of treatment vs. control, was observed showing an increase in histone acetylation for JF1/romidepsin and YF2/romidepsin compared to individual treatment of the cells with either JF1, YF2, or romidepsin alone (FIG. 25A).

[5] = tested on: SUDHL-10 cells (EP300 mut/CREBBP mut); test: as above; format: cell-based; conditions: combination with romidepsin (1.5 nM), YF2 6 uM, 48 hours
Method: as §3
The synergy trend for the SUDCL-6 cell line is evident for SUDCL-10 as well (FIG. 25B). In the same manner as described above, SUDHL-10 cells were treated separately with romidepsin, JF1, YF2, JF1/romidepsin, and YF2/romidepsin and the fold change in histone acetylation was measured.

[6] = tested on: SUDHL-10; test: Histone H3 acetylation by Western Blot; format: cell-based; conditions: in combination with romidepsin, 48 hours
Method: (§4) FIG. 26 provides a Western Blot showing the effect of JF1 and YF2 alone and in combination with romidepsin on histone acetylation in HAT-mutated cells lines. Cells were exposed to YF2 and romidepsin alone and in combinations for 48 hours in SUDHL-6 and SUDHL-10 (EP300 mut/CREBBP mut). The synergistic effect of YF2 on histone acetylation was evaluated by Western Blot with histone H3 serving as loading control.

[7] = tested on: SUDHL-6; test: Histone H3 acetylation by Western Blot; format: cell-based; conditions: in combination with romidepsin, 48 hours
Method: as §4

Compound | solubility [1] | strong synergy response (EOB of at least 20) [2] | cell lines with strong synergy (EOB of at least 20) [3] | cell lines with strong synergy (EOB of at least 20), percentage [3] | H3:K9AC increase in acetylation vs. YF2 or JF1 alone [4] | H3:K9AC increase in acetylation vs. control [4] | H3:K9AC increase in acetylation vs. romidepsin [4] | global acetylation of histones compared with single agent effects [4] | global acetylation of histones compared with single agent effects ([5]; JF1 3 uM) | H3:K9AC maximum synergy effect on acetylation [5] | global acetylation of Histone H3 compared with single agent effects [6] | global acetylation of Histone H3 compared with single agent effects [7]
CCOc1ccccc1C(=O)Nc1ccc(Cl)c(C(F)(F)F)c1 [CTB] | insoluble |  |  |  |  |  |  |  |  |  |  | 
CCCCCCCCCCCCCCCc1cccc(OCC)c1C(=O)Nc1ccc(Cl)c(C(F)(F)F)c1 [CTPB] | insoluble |  |  |  |  |  |  |  |  |  |  | 
CCOc1cccc(OCCN(C)C)c1C(=O)Nc1ccc(Cl)c(C(F)(F)F)c1 [YF2] |  | fail to show a strong response | 6 out of 7 | 86% | 8 fold | 10 fold | ~2 fold | induced the global acetylation of histones | induced the global acetylation of histones | about 1.6 fold | induced the global acetylation of Histone H3 | induced the global acetylation of Histone H3
